Common to all, as to type: biochemical
One experiment concerns the target T1, LATS1 (Homo sapiens, UniProt O95835).
T1 sequence (O95835 1-1130): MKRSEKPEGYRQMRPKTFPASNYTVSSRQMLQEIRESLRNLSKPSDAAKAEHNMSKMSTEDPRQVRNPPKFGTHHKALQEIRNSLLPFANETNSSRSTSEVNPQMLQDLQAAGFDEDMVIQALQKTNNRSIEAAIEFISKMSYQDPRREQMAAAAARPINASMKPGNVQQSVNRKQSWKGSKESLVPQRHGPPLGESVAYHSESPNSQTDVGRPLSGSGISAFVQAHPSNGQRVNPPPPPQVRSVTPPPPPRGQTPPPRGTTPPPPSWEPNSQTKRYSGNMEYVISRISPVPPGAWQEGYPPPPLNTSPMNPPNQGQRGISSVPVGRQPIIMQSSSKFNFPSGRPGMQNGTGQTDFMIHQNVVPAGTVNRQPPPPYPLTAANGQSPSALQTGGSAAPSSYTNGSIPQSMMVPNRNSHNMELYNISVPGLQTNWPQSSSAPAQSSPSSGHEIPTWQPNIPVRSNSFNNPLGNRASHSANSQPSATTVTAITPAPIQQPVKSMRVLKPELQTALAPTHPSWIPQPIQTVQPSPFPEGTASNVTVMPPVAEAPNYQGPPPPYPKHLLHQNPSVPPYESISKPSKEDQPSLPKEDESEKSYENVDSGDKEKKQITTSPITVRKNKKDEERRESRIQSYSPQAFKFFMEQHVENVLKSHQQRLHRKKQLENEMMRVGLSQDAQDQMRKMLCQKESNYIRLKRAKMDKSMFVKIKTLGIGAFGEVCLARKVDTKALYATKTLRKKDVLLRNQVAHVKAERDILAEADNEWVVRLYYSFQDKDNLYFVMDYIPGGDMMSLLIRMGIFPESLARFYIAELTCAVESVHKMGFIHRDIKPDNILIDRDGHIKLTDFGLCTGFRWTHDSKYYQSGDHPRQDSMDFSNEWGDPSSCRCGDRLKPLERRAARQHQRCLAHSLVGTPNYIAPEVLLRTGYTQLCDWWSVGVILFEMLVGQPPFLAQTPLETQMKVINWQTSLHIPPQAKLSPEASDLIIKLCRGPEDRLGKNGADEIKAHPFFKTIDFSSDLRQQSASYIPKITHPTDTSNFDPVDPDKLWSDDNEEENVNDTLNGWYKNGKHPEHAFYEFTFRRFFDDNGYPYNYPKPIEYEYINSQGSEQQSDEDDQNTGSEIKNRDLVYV
The experiment can be described thus: RBC HotSpot kinase assay (33P-ATP, P81 filter-binding), LATS1. The note with it: Table 28, biochemical kinase assay; read-out: LATS1 IC50. A digest of the protocol: (§1)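 Radiometric 33P-ATP kinase reaction in 20 mM Hepes pH 7.5, 10 mM MgCl2, 1 mM EGTA, 0.01% Brij35, 0.02 mg/ml BSA, 0.1 mM Na3VO4, 2 mM DTT, 1% DMSO. Compound preincubated with kinase and substrate 20 min, then 2 h at room temperature; P81 filter-binding read-out. IC50 (nM) from 10-point singlet curves.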

A further experiment deals with AKT (Homo sapiens, UniProt P31749). The experiment can be described thus: RBC HotSpot kinase assay (33P-ATP, P81 filter-binding), AKT. The note with it: Table 28, biochemical kinase assay; read-out: AKT IC50. A digest of the protocol:
as §1

The target of a further experiment is T2, LATS2 (Homo sapiens, UniProt Q9NRM7).
T2 sequence (Q9NRM7 1-1088): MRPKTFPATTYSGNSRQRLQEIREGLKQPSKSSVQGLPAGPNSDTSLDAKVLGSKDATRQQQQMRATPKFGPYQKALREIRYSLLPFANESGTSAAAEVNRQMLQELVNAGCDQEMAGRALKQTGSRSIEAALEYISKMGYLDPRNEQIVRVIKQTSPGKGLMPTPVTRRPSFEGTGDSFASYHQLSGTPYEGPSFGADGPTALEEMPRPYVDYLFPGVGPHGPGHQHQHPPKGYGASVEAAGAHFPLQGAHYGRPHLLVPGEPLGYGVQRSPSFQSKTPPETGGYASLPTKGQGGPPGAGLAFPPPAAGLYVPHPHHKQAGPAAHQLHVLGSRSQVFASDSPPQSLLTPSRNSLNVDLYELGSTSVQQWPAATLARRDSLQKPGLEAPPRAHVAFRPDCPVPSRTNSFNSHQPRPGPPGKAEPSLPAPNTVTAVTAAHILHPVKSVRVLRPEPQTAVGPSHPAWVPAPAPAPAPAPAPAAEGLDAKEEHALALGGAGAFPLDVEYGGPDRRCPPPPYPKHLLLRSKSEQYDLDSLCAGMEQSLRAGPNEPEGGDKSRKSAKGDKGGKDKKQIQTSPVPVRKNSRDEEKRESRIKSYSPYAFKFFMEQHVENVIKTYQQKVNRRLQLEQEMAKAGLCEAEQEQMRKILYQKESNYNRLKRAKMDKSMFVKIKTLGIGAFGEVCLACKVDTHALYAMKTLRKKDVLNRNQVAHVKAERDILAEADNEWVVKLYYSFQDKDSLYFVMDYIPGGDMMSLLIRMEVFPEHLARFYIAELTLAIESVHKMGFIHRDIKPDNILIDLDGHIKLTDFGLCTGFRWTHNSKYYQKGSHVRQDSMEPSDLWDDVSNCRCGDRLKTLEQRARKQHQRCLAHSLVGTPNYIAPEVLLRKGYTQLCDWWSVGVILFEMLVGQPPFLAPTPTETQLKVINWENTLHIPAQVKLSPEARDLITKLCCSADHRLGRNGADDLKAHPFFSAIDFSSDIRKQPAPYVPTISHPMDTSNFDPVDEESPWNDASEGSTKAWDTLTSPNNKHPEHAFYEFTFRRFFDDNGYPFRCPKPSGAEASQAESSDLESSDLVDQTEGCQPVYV
The experiment can be described thus: RBC HotSpot kinase assay (33P-ATP, P81 filter-binding), LATS2. The note with it: Table 28, biochemical kinase assay; read-out: LATS2 IC50. A digest of the protocol:
as §1

As a reminder, the IC50 is the concentration that gives 50% inhibition.

AKT, sequence (P31749 whole entry): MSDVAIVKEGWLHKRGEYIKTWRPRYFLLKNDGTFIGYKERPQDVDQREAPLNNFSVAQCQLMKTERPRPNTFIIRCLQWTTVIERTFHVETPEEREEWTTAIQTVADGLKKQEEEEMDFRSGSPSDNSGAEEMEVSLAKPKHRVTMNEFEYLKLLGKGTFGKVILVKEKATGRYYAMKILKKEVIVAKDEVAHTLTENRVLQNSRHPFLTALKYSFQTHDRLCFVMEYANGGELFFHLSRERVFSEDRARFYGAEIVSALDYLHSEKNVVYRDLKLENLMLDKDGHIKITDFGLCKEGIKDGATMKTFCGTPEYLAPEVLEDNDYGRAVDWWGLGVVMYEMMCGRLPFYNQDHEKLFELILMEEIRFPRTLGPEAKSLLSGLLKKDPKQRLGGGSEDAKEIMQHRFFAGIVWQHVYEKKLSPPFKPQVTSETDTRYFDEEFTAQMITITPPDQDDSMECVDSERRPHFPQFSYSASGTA

`CN1CC(O)(c2ccc(-c3ccnc4[nH]cc(F)c34)cc2Cl)C1` [Compound 137, 3-(2-chloro-4-(3-fluoro-1H-pyrrolo[2,3-b]pyridin-4-yl)phenyl)-1-methylazetidin-3-ol]: the IC50 at LATS1 amounted to 108 nM; at AKT, 1180 nM; on LATS2 it was 350 nM.
On the same counts, the results for `OC1(c2c(F)cc(-c3ccnc4[nH]cc(F)c34)cc2F)CC2(CN(C3COC3)C2)C1` [Compound 138, 6-(2,6-difluoro-4-(3-fluoro-1H-pyrrolo[2,3-b]pyridin-4-yl)phenyl)-2-(oxetan-3-yl)-2-azaspiro[3.3]heptan-6-ol] are 66.4 nM, 2710 nM and 117 nM.
The corresponding values for `O=S1(=O)CCC(N2CC3(C2)CC(O)(c2c(F)cc(-c4ccnc5[nH]cc(F)c45)cc2F)C3)CC1` [Compound 140, 4-(6-(2,6-difluoro-4-(3-fluoro-1H-pyrrolo[2,3-b]pyridin-4-yl)phenyl)-6-hydroxy-2-azaspiro[3.3]heptan-2-yl)tetrahydro-2H-thiopyran 1,1-dioxide] are 56.8 nM, 1580 nM and 120 nM.
On the same counts, the results for `CC(C)(C)OC(=O)N1CCC(O)(c2ccc(-c3ccnc4[nH]ccc34)cc2)CC1` [Compound 141, tert-butyl 4-(4-(1H-pyrrolo[2,3-b]pyridin-4-yl)phenyl)-4-hydroxypiperidine-1-carboxylate] are 897 nM, greater than 10000 nM and 465 nM.
With `O=C([C@@H]1CCCN1)N1CCC(O)(c2ccc(-c3ccnc4[nH]cc(F)c34)cc2)CC1` [Compound 143, (S)-3-fluoro-4-(4-(4-hydroxy-1-prolylpiperidin-4-yl)phenyl)-1H-pyrrolo[2,3-b]pyridine], the half-maximal inhibitory concentration (IC50) on LATS1 was 26 nM; on AKT it was 1460 nM; at LATS2, 12 nM.
On the same counts, the results for `O=C([C@@H]1CCCN1)N1CC(O)(c2ccc(-c3ccnc4[nH]cc(F)c34)cc2Cl)C1` [Compound 144, (S)-4-(3-chloro-4-(3-hydroxy-1-prolylazetidin-3-yl)phenyl)-3-fluoro-1H-pyrrolo[2,3-b]pyridine] are 50 nM, 2770 nM and 26 nM.
The corresponding values for `NCC(=O)N1CC2(C1)CC(O)(c1c(F)cc(-c3ccnc4[nH]cc(F)c34)cc1F)C2` [Compound 145, 2-amino-1-(6-(2,6-difluoro-4-(3-fluoro-1H-pyrrolo[2,3-b]pyridin-4-yl)phenyl)-6-hydroxy-2-azaspiro[3.3]heptan-2-yl)ethan-1-one] are 28.3 nM, 1870 nM and 46 nM.
The corresponding values for `c1cc(-c2ccc(C3CC4CCCC(C3)N4)cc2)c2cc[nH]c2n1` (stereo not drawn) [Compound 146, 4-(4-(9-azabicyclo[3.3.1]nonan-3-yl)phenyl)-1H-pyrrolo[2,3-b]pyridine] are 203 nM, 2460 nM and 94.8 nM.
With `NCC(=O)N1CCC(c2ccc(-c3ccnc4[nH]cc(F)c34)cc2Cl)CC1` [Compound 148, 2-amino-1-(4-(2-chloro-4-(3-fluoro-1H-pyrrolo[2,3-b]pyridin-4-yl)phenyl)piperidin-1-yl)ethan-1-one], the half-maximal inhibitory concentration (IC50) was 7.7 nM on LATS1, 1080 nM on AKT and 17.8 nM at LATS2.
On the same counts, the results for `NCc1ccc(-c2cc(-c3ccnc4[nH]cc(F)c34)ccc2C2CCNCC2)cc1` [Compound 149, (5′-(3-fluoro-1H-pyrrolo[2,3-b]pyridin-4-yl)-2′-(piperidin-4-yl)-[1,1′-biphenyl]-4-yl)methanamine] are 4.3 nM, 67.3 nM and 1 nM.
The corresponding values for `NC(=O)c1ccc(-c2cc(-c3ccnc4[nH]ccc34)ccc2C2CCNCC2)cc1` [Compound 150, 2′-(piperidin-4-yl)-5′-(1H-pyrrolo[2,3-b]pyridin-4-yl)-[1,1′-biphenyl]-4-carboxamide] are 32.9 nM, 967 nM and 25.9 nM.
The corresponding values for `NCc1ccc(-c2cc(-c3ccnc4[nH]cc(Br)c34)ccc2C2CCNCC2)cc1` [Compound 151, (5′-(3-bromo-1H-pyrrolo[2,3-b]pyridin-4-yl)-2′-(piperidin-4-yl)-[1,1′-biphenyl]-4-yl)methanamine] are 16.6 nM, 170 nM and 15.1 nM.
In the case of `COC(=O)c1c[nH]c2nccc(-c3ccc(C4CCNCC4)c(-c4ccc(CN)cc4)c3)c12` [Compound 152, methyl 4-(4′-(aminomethyl)-6-(piperidin-4-yl)-[1,1′-biphenyl]-3-yl)-1H-pyrrolo[2,3-b]pyridine-3-carboxylate], the IC50 stood at 66.3 nM on LATS1, 4410 nM at AKT and 50.2 nM at LATS2.
The corresponding values for `c1ccc(-c2cc(-c3ccnc4[nH]ccc34)ccc2C2CCNCC2)cc1` [Compound 153, 4-(6-(piperidin-4-yl)-[1,1′-biphenyl]-3-yl)-1H-pyrrolo[2,3-b]pyridine] are 15.2 nM, 378 nM and 20.4 nM.
The corresponding values for `c1cncc(-c2cc(-c3ccnc4[nH]ccc34)ccc2C2CCNCC2)c1` [Compound 154, 4-(4-(piperidin-4-yl)-3-(pyridin-3-yl)phenyl)-1H-pyrrolo[2,3-b]pyridine] are 87 nM, 1320 nM and 48 nM.
On the same counts, the results for `NCc1ccc(-c2cc(-c3ccnc4[nH]ccc34)ccc2C2CCNCC2)cc1` [Compound 155, (2′-(piperidin-4-yl)-5′-(1H-pyrrolo[2,3-b]pyridin-4-yl)-[1,1′-biphenyl]-4-yl)methanamine] are 4.3 nM, 68 nM and 1 nM.
For `CC(C)(C)Nc1cc(-c2ccnc3[nH]cc(F)c23)ccc1C1CCNCC1` [Compound 156, N-(tert-butyl)-5-(3-fluoro-1H-pyrrolo[2,3-b]pyridin-4-yl)-2-(piperidin-4-yl)aniline], the half-inhibitory concentration (IC50) at LATS1 is 139 nM; at AKT, 1120 nM; on LATS2 it was 121 nM.
On the same counts, the results for `CC(C)(C)Nc1cc(-c2ccnc3[nH]ccc23)ccc1C1CCNCC1` [Compound 157, N-(tert-butyl)-2-(piperidin-4-yl)-5-(1H-pyrrolo[2,3-b]pyridin-4-yl)aniline] are 216 nM, 1650 nM and 109 nM.

The values are drawn from US20250361230A1, “LATS Inhibitors and Uses Thereof” (The USA, as Represented by the Secretary, Dept. of Heath …, priority 2022, published 2025).
